Measured values as given in patent US9919941B2, “Multiple uses of amine salts for industrial water treatment” (AMSA, Inc., priority 2012, dated 2018).
Values joined by “and” are separate entries in the source; they are usually repeats but may differ in a detail not shown here. Identical values can stand only once.

Key:
[1] = calcium carbonate scale inhibition (conductometric titration, supersaturation ratio Sr)
Experimental: To a 100 mL beaker were added 60 mL of HPLC-grade water and 3 mL of 0.1 M calcium chloride. An appropriate amount (0.5-4 mL) of an aqueous solution of the inhibitor compound of Formula (I) to be tested was then added. The solution was magnetically stirred at a constant speed for all experiments. The sample was then titrated with 0.1 M sodium carbonate. After addition of each 0.2 mL aliquot of sodium carbonate titrant, the solution was mixed for 1 min and then the conductivity of the solution measured.
As titrant is added the conductivity increases in a linear fashion. When the supersaturation point is reached, the conductivity decreases and precipitation begins. This is considered the endpoint of the titration. The resulting titration endpoint volumes are used to calculate a relative supersaturation ratio (Sr). This is the ratio of the supersaturation of calcium carbonate in the presence of the compound of Formula (I) being tested to the value of the supersaturation of water without inhibitor (distilled water plus 3 mL of 0.1 M calcium chloride). Thus, compounds with Sr>1 are displaying scale inhibition.
The scale inhibition performance of various compounds of Formula (I) and comparative compounds were compared at the same molar concentration. These compounds were tested at 60 μM concentration except where noted otherwise. Compound numbers are from Table 1.

[2] = mild steel corrosion inhibition, ASTM G31-72 coupon weight loss
Experimental: (§1) Corrosion inhibition studies of various compounds of Formula (I) were conducted according to ASTM method G31-72 (2004). The following is the general test method.
(§2) Aqueous solutions of the test compound (900 mL) were prepared with city water for mild steel corrosion studies or a dilute sea salt solution (1000 ppm in deionized water) for copper corrosion studies. The solutions were magnetically stirred at a constant rate in a 1 L beaker and three coupons of either mild steel or copper were suspended in each beaker. After 5 days (steel) or 7 days (copper), the coupons were removed and cleaned according to ASTM method G1-03. Average weight loss was determined for each set of three coupons and then converted to corrosion rate in terms of mils per year (mpy).
These tests compare the corrosion inhibition of compounds of Formula (I), namely from Table 1, in the first set of comparisons, Compound A with Compound 13, and Compound B with Compound 1, and with 2-hydroxypropane-1,2,3-tricarboxylic acid. Thus five samples were tested relative to a blank and a standard, (1-hydroxyethan-1,1-diyl)bis(phosphonic acid), after 5 days at 26 μM concentrations. […] Concentrations were 26 μM.
Additional mild steel corrosion tests were performed at 130 μM concentration of compounds of Formula (I) and comparative compounds for 5 days. The next test compared the corrosion inhibition of Compound 8 with 2,3-dihydroxybutanedioic acid and Compound B, and Compound 4 with (1-hydroxyethan-1,1-diyl)bis(phosphonic acid) and Compound B. Also included was Compound 1 for reference. Concentrations in this set were 130 μM.

[3] = copper corrosion inhibition, ASTM G31-72 coupon weight loss
Experimental: as §1, §2
The first test of copper corrosion inhibition compared Compound A with Compound 13 (from Table 1), 2-hydroxypropane-1,2,3-tricarboxylic acid, and a commercial inhibitor, Na-TAI.

[4] = 5 days, 130 μM, Table 4 (blank 24 mpy)
[5] = 130 μM, Table 5 (blank 12.5 mpy)

In the case of `O=C(O)C(O)C(O)C(O)C(O)C(=O)O` (stereo not drawn) [2,3,4,5-tetrahydroxyhexanedioic acid], the “Sr (supersaturation ratio)” value ([1]; 60 μM) is reported as 1.4.

With `O=C(O)C(O)C(O)C(=O)O` (stereo not drawn) [2,3-Dihydroxybutanedioic acid] the “Sr (supersaturation ratio)” value ([1]; 60 μM) was 1.0 and the “Inhibition relative to blank” value [2, 4] was 20%.

For `O=C(O)CC(O)(CC(=O)O)C(=O)O` [2-hydroxypropane-1,2,3-tricarboxylic acid], the “Sr (supersaturation ratio)” value ([1]; 63 μM) was 1.2, the “Inhibition relative to blank” value ([2]; 5 days, 26 μM, Table 3, 26 µM) was 9.8% and 10% and the “Inhibition relative to blank” value ([3]; 42 μM, Table 7) was 9%. For the same compound, the “Inhibition relative to blank” value ([3]; 7 days, 17 μM, Table 6) was 0%.

For `O=C(O)CCC(CC(=O)O)(C(=O)O)P(=O)(O)O` (stereo not drawn) [2-phosphonobutane-1,2,4-tricarboxylic acid], the “Sr (supersaturation ratio)” value ([1]; 5.9 μM) was 3.0.

With `CC(O)(P(=O)(O)O)P(=O)(O)O` [(1-hydroxyethan-1,1-diyl)bis(phosphonic acid)] the “Sr (supersaturation ratio)” value ([1]; 45 μM) was 2.5, the “Sr (supersaturation ratio)” value ([1]; 60 μM) was 4.4 and the “Inhibition relative to blank” value ([2]; 5 days, 26 μM, Table 3) was 36%. For the same compound, the “Inhibition relative to blank” value [2, 4] was 62%.

For `O=C(O)CCC(=O)O` [Butanedioic acid], the “Sr (supersaturation ratio)” value ([1]; 60 μM) was 1.0.

In the case of `CC(O)(P(=O)(O)O)P(=O)(O)O.CCCCCCCCCCOCCCN` [Compound 4, Salt of Oxyamine (II) and (1-Hydroxyethan-1,1-diyl)bis(phosphonic acid) (1:1 Molar Stoichiometry)], the “Sr (supersaturation ratio)” value ([1]; 60 μM) is reported as 4.3 and the “Inhibition relative to blank” value [2, 4] is reported as 68%.

For `O=C(O)C(=O)O` [Ethanedioic acid], the “Inhibition relative to blank” value [2, 5] was −16%.

With `[Na+].c1ccc2[n-]nnc2c1` [Na-TAI, sodium salt of 1,2,3-triaza-1H-indene] the “Inhibition relative to blank” value ([3]; 7 days, 17 μM, Table 6) was 71%.

With `O=P(O)(O)O` [Trihydroxidooxidophosphorus] the “Inhibition relative to blank” value [2, 5] was 40%.

With “Salt of Oxyamine (II) and 2,3-Dihydroxybutanedioic acid salt (1:1 molar stoichiometry) [Compound 8]” the “Sr (supersaturation ratio)” value ([1]; 60 μM) was 1.3, the “Sr (supersaturation ratio)” value ([1]; 120 μM) was 1.5 and the “Inhibition relative to blank” value [2, 4] was 44%.

In the case of “Salt of Oxyamine (II) and Butanedioic acid salt (1:1 molar stoichiometry) [Compound 10]”, the “Sr (supersaturation ratio)” value ([1]; 60 μM) is reported as 1.0.

In the case of “Salt of Oxyamine (II) and Ethanedioic acid salt (1:1 molar stoichiometry [Compound 2]”, the “Inhibition relative to blank” value [2, 5] is reported as −21%.

For “Salt of Oxyamine (II) and Trihydroxidooxidophosphorus salt (1:1 molar stoichiometry) [Compound 3]”, the “Inhibition relative to blank” value [2, 5] was 55%.
